{"source": "patent US9549925B2", "about": "“Lipid-based compositions of antiinfectives for treating pulmonary infections and methods of use thereof” (Insmed Incorporated, priority 2005, dated 2017)", "origin": "cited, not measured here", "settings": "free tobramycin, nebulized, nominal dose 300 mg; absorption into the systemic circulation"}
{"smiles": "NC[C@H]1O[C@H](O[C@H]2[C@H](O)[C@@H](O[C@H]3O[C@H](CO)[C@@H](O)[C@H](N)[C@H]3O)[C@H](N)C[C@@H]2N)[C@H](N)C[C@@H]1O", "note": "[tobramycin, Tobramycin]", "values": [{"measurement": "absorption half-life from the lung", "result": "about 1.5 hr"}]}
